These results are taken from ChEMBL document CHEMBL5537113, “Discovery of 1,2-diaryl-3-oxopyrazolidin-4-carboxamides as a new class of MurA enzyme inhibitors and characterization of their antibacterial activity” (Eur J Med Chem, 2023).

Some results are limits rather than exact numbers.

Data set [1] deals with UDP-N-acetylglucosamine 1-carboxyvinyltransferase (Escherichia coli K-12), P0A749 [C115D]. The experiment in a line: Inhibition of Escherichia coli MurA C115D mutant using UNAG as substrate pre incubated for 15 mins followed by substrate addition and measured after 15 mins by microplate reader analysis. To be noted: time 30.0 min.
The target of data set [2] is UDP-N-acetylglucosamine 1-carboxyvinyltransferase (Escherichia coli K-12, UniProt P0A749, C115D). Nature of the data set: Inhibition of Escherichia coli MurA C115D mutant at 50 uM using UNAG as substrate pre incubated for 15 mins followed by substrate addition and measured after 15 mins by microplate reader analysis relative to control.
A short description of data set [3]: Drug uptake in Escherichia coli harboring tolC deletion mutant at 10 uM incubated for 30 mins by LC analysis. The format is ADME. To be noted: 0.5 h.
The nature of data set [4]: Drug uptake in Escherichia coli harboring tolC deletion mutant assessed per 1.6x10^9 cells at 10 uM incubated for 30 mins by LC analysis. Conditions: 0.5 h. It counts as ADME.
Data set [5] has as its system Staphylococcus aureus. Nature of the data set: Antibacterial activity against methicillin sensitive Staphylococcus aureus NRS107 assessed as reduction in microbial growth by CLSI based broth microdilution method. The format is functional.
Data set [6] has as its system Staphylococcus aureus. Nature of the data set: Antibacterial activity against methicillin resistant Staphylococcus aureus NRS119 assessed as reduction in microbial growth by CLSI based broth microdilution method. The format is functional. (In general: In broth dilution the organism is exposed to a series of concentrations in liquid medium.)
Data set [7] relates to Clostridioides difficile. Nature of the data set: Antibacterial activity against Clostridioides difficile ATCC BAA1870 assessed as reduction in microbial growth incubated for 48 hrs by broth microdilution method. The format is functional.
Data set [8] concerns Clostridioides difficile. The experiment in a line: Antibacterial activity against Clostridioides difficile NR-32895 assessed as reduction in microbial growth incubated for 48 hrs by broth microdilution method. It counts as functional.
For data set [9], the system named is Clostridioides difficile. Nature of the data set: Antibacterial activity against Clostridioides difficile NR-32903 assessed as reduction in microbial growth incubated for 48 hrs by broth microdilution method. It counts as functional.
Data set [10] relates to Clostridioides difficile. The experiment in a line: Antibacterial activity against Clostridioides difficile NR-49284 assessed as reduction in microbial growth incubated for 48 hrs by broth microdilution method. The format is functional.
The subject of data set [11] is Clostridioides difficile. The experiment in a line: Bactericidal activity against Clostridioides difficile NR-49278 assessed as reduction in microbial growth by broth microdilution method. It counts as functional.
In data set [12] the test system is Clostridioides difficile. The experiment in a line: Bactericidal activity against Clostridioides difficile ATCC 43255 assessed as reduction in microbial growth by broth microdilution method. The format is functional.
The subject of another data set is Bifidobacterium breve. The experiment in a line: Antibacterial activity against Bifidobacterium breve HM 412 assessed as reduction in microbial growth incubated for 48 hrs by broth microdilution method. It counts as functional.
Another data set relates to Lactobacillus gasseri. Nature of the data set: Antibacterial activity against Lactobacillus gasseri HM 407 assessed as reduction in microbial growth incubated for 48 hrs by broth microdilution method. The format is functional.
The test system of data set [13] is Caco-2. Nature of the data set: Cytotoxicity against human Caco-2 cells assessed as reduction in cell viability at 64 ug/ml after 24 hrs by MTS assay. The format is toxicity, cell-based. To be noted: caco-2, 24 h, dose 64 µg/ml. In general terms: Tetrazolium dyes change colour on reduction, which living cells bring about.
For data set [14], the system named is Clostridioides difficile. Nature of the data set: Selectivity ratio of MBC for antibacterial activity against Clostridioides difficile NR-32895 to MIC for antibacterial activity against Clostridioides difficile NR-32895. The format is functional.
For data set [15], the system named is Clostridioides difficile. The experiment in a line: Selectivity ratio of MBC for antibacterial activity against Clostridioides difficile NR-49278 to MIC for antibacterial activity against Clostridioides difficile NR-49278. The format is functional.
In data set [16] the test system is Clostridioides difficile. Nature of the data set: Selectivity ratio of MBC for antibacterial activity against Clostridioides difficile NR-49284 to MIC for antibacterial activity against Clostridioides difficile NR-49284. The format is functional.
Data set [17] in a line: Stability of compound in LB broth medium at 10 uM incubated for 24 hrs at 37 degC by UHPLC-MS/MS analysis. It counts as physicochemical.
Data set [18] concerns Caco-2. Nature of the data set: Cytotoxicity against human Caco-2 cells assessed as reduction in cell viability at > 128 ug/ml after 24 hrs by MTS assay. To be noted: caco-2, 24 h, dose > 128 µg/ml. It counts as toxicity, cell-based.

Sequence of UDP-N-acetylglucosamine 1-carboxyvinyltransferase (P0A749 whole entry C115D): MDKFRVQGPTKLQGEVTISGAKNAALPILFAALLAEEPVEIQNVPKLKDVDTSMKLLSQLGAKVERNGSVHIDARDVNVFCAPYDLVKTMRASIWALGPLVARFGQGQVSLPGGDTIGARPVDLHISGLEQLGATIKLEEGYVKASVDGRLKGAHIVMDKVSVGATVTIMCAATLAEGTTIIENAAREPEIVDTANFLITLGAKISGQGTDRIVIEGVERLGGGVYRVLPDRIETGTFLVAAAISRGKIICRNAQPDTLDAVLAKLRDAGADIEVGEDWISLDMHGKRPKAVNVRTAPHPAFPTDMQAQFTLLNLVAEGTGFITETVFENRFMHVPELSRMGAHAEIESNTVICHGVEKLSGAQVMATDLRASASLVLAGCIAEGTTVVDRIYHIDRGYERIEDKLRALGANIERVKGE
Sequence of UDP-N-acetylglucosamine 1-carboxyvinyltransferase (Escherichia coli K-12), P0A749 [C115D] (P0A749 whole entry C115D): as above

By inhibition is commonly meant the percentage by which the read-out fell short of the control. A higher inhibition goes with a response far below the control. The term IC50 denotes the concentration that gives 50% inhibition. Read a high IC50 as weaker potency in that assay. One may read the MIC as the smallest concentration in the dilution series that meets the test's criterion for growth inhibition. As usually defined, the MBC is the smallest concentration meeting the test's criterion for killing. `O=C(Nc1ncc([N+](=O)[O-])s1)C1CN(c2cccc(Cl)c2)N(c2cccc(Cl)c2)C1=O` (centres undefined) returned an inhibition in data set [1] of 76%. The IC50 in [2] stood at 10.9 µM. Moreover, the results for the Drug uptake in data set [3] and in [4] were 56 nM and 1.8 µM, respectively. The MIC in the data set on Staphylococcus aureus [5] turned out to be 2 µg/mL; in the data set with Staphylococcus aureus [6], 1 µg/mL; in the data set on Clostridioides difficile [7] it was 0.25 µg/mL; in the data set on Clostridioides difficile [8], 0.5 µg/mL; in the data set with Clostridioides difficile [9], 0.5 µg/mL; in the data set with Clostridioides difficile [10] it was 0.5 µg/mL. Also, the MIC is 64 µg/mL in the data set on Bifidobacterium breve and more than 64 µg/mL in the data set with Lactobacillus gasseri. The figures for the MBC with Clostridioides difficile [11] and with Clostridioides difficile [12] were 0.5 µg/mL and 0.25 µg/mL, respectively. Moreover, the Activity result in the data set with Caco-2 [13] is “Non-Toxic”. Besides, the Ratio in the data set with Clostridioides difficile [14], with Clostridioides difficile [15] and in the data set on Clostridioides difficile [16] was 1 each time. Moreover, in data set [17], the Stability entry is recorded as “Stable”.

Take `O=C(Nc1ncc([N+](=O)[O-])s1)C1CN(c2ccc(Cl)cc2)N(c2ccc(Cl)cc2)C1=O` (centres undefined): the MIC in the data set with Staphylococcus aureus [5] amounted to 64 µg/mL; in the data set on Staphylococcus aureus [6] it was 64 µg/mL; in the data set with Clostridioides difficile [7], 0.5 µg/mL; in the data set on Clostridioides difficile [8] it was 1 µg/mL; in the data set with Clostridioides difficile [9], 0.5 µg/mL; in the data set on Clostridioides difficile [10], 0.5 µg/mL. Besides, the minimum inhibitory concentration (MIC) in the data set with Bifidobacterium breve and with Lactobacillus gasseri was more than 64 µg/mL throughout. Also, the MBC in the data set with Clostridioides difficile [11] and with Clostridioides difficile [12] was 0.5 µg/mL in each case. In addition, in the data set with Caco-2 [18], the Activity result is on record as “Non-Toxic”. The Ratio in the data set on Clostridioides difficile [14], in the data set on Clostridioides difficile [15] and in the data set on Clostridioides difficile [16] was 1 in each case. In addition, in [17], the Stability result was “Stable”.
